Consider 4 molecules from ChEMBL document CHEMBL1131939, “The synthesis and P388 cytotoxicity of mycalazol 11 and related 5-acyl-2-hydroxymethylpyrroles” (1999).

Values after ≈ are worked out from the molar mass of the structure shown.

The test has as its system P388. Description: In vitro cytotoxicity against the P388 murine leukemia cell line was determined. The class given is functional. Particulars: Mus musculus, read-out: ID50 (the source's name).
Take `CCCCCC(=O)c1ccc(CO)[nH]1`: the IC50 stood at 78 µg/mL (≈ 399 µM).

With `CCCCCCCCCCCCC(=O)c1ccc(CO)[nH]1`, the IC50 turned out to be 52 µg/mL (≈ 177 µM).

Turning to `CCCCCCCCCCCC(=O)c1ccc(CO)[nH]1`, the IC50 worked out at 21 µg/mL (≈ 75.2 µM).

Take `CCCCCCCCCCCCCCCCCCC(=O)c1ccc(CO)[nH]1`: the IC50 came out at 24 µg/mL (≈ 63.6 µM).
